The results in this text go back to paper PMC5539197, “CD14 is critical for TLR2-mediated M1 macrophage activation triggered by N-glycan recognition” (Scientific Reports, 2017).

This assay deals with T1, ArtinM (Artocarpus integer, UniProt Q7M1T4).
T1 construct: tetramer
T1 sequence (Q7M1T4 1-149): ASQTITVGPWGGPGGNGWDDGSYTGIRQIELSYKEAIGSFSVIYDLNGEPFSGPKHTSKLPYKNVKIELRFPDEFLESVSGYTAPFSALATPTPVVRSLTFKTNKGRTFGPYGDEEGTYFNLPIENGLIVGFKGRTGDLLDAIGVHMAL
Description: inhibition of lectin precipitation, western blot. Format: binding. To be noted: 1 mM trimannoside pre-incubated, 4 °C; lysate of HEK cells transfected with CD14 or TLR2; carbohydrate recognition site, competes with glycoprotein N-glycans. On the procedure: inhibition of lectin precipitation, western blot on […] | CD14 and TLR2 were not detected when the procedure was carried out with […]
On the technique in general: Immunoblotting shows a protein as a band on a membrane.

In the case of `OC[C@H]1O[C@H](OC[C@H]2OC(O)[C@@H](O)[C@@H](O[C@H]3O[C@H](CO)[C@@H](O)[C@H](O)[C@@H]3O)[C@@H]2O)[C@@H](O)[C@@H](O)[C@@H]1O` (stereo partly shown) [Manα1-3(Manα1-6)Man], the “inhibition of lectin precipitation, western blot” value is “CD14 and TLR2 were not detected when the procedure was carried out with ArtinM”.
